# Reference: patent publication US8604061B2, “2-aminooxazolines as TAAR1 ligands” (Hoffmann-La Roche Inc., priority 2007, dated 2013)
# pKi: −log10 of the molar value.
# Target: TAAR1 (Mus musculus, UniProt Q923Y8)
# Test: TAAR1 radioligand binding, membranes of stably transfected HEK293 cells (mouse)
# Settings: not given
# In short: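 Competition binding on membranes from HEK293 cells stably expressing the TAAR1 species ortholog, in HEPES-NaOH pH 7.0 with 10 mM MgCl2 and 2 mM CaCl2, 30 min at 4° C with [3H]-rac-2-(1,2,3,4-tetrahydro-1-naphthyl)-2-imidazoline. Competitors 10 pM–30 μM, duplicates; non-specific binding with 10 μM unlabelled ligand; filtration and scintillation counting.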
row,Structure (SMILES),pKi
1,"NC1=N[C@@H](c2ccc(Cl)c(F)c2)CO1 [Example 174, (S)-4-(4-Chloro-3-fluoro-phenyl)-4,5-dihydro-oxazol-2-ylamine]",9.22

# Same assay, conditions: mouse/rat; cell not marked 'rat'; radioligand [3H]-rac-2-(1,2,3,4-tetrahydro-1-naphthyl)-2-imidazoline, 4° C.; read-out: Ki (μM) mouse/rat
row,Structure (SMILES),Ki [µM]
1,"NC1=N[C@@H](CCc2cc(C(F)(F)F)ccc2F)CO1 [Example 156, (S)-4-[2-(2-Fluoro-5-trifluoromethyl-phenyl)-ethyl]-4,5-dihydro-oxazol-2-ylamine]",0.0064
2,"NC1=N[C@@H](CCc2ccncc2F)CO1 [Example 158, (S)-4-[2-(3-Fluoro-pyridin-4-yl)-ethyl]-4,5-dihydro-oxazol-2-ylamine]",0.0068
3,"NC1=N[C@@H](CCc2cc(F)cc(C(F)(F)F)c2)CO1 [Example 159, (S)-4-[2-(3-Fluoro-5-trifluoromethyl-phenyl)-ethyl]-4,5-dihydro-oxazol-2-ylamine]",0.001
4,"NC1=N[C@@H](CCc2cc(C(F)(F)F)ccc2C(F)(F)F)CO1 [Example 160, (S)-4-[2-(2,5-Bis-trifluoromethyl-phenyl)-ethyl]-4,5-dihydro-oxazol-2-ylamine]",0.0028
5,"Cc1ccc([C@@]2(C)COC(N)=N2)cc1 [Example 161, (S)-4-Methyl-4-p-tolyl-4,5-dihydro-oxazol-2-ylamine]",0.0062
6,"CCC(C[C@H]1COC(N)=N1)c1ccc(Cl)cc1 (stereo partly drawn) [Example 162, (S)-4-[2-(4-Chloro-phenyl)-butyl]-4,5-dihydro-oxazol-2-ylamine]",0.0025
7,"CCC(C[C@H]1COC(N)=N1)c1ccccc1 (stereo partly drawn) [Example 163, (S)-4-(2-Phenyl-butyl)-4,5-dihydro-oxazol-2-ylamine]",0.0037
8,"CC(C[C@H]1COC(N)=N1)c1ccc(C(F)(F)F)cc1 (stereo partly drawn) [Example 165, (S)-4-[2-(4-Trifluoromethyl-phenyl)-propyl]-4,5-dihydro-oxazol-2-ylamine]",0.0012
9,"NC1=N[C@@H](c2ccc(F)c(F)c2)CO1 [Example 166, (S)-4-(3,4-Difluoro-phenyl)-4,5-dihydro-oxazol-2-ylamine]",0.0047
10,"NC1=N[C@@H](c2cccc(Cl)c2Cl)CO1 [Example 168, (S)-4-(2,3-Dichloro-phenyl)-4,5-dihydro-oxazol-2-ylamine]",0.0006
11,"NC1=N[C@@H](c2ccc(Cl)cc2)CO1 [Example 169, (S)-4-(4-Chloro-phenyl)-4,5-dihydro-oxazol-2-ylamine]",0.0014
12,"NC1=N[C@@H](c2cc(F)c(F)c(F)c2)CO1 [Example 170, (S)-4-(3,4,5-Trifluoro-phenyl)-4,5-dihydro-oxazol-2-ylamine]",0.0011
13,"NC1=N[C@@H](c2ccc(F)c(Cl)c2)CO1 [Example 172, (S)-4-(3-chloro-4-fluoro-phenyl)-4,5-dihydro-oxazol-2-ylamine]",0.0019
14,"NC1=N[C@@H](c2cc(F)cc(F)c2)CO1 [Example 176, (S)-4-(3,5-Difluoro-phenyl)-4,5-dihydro-oxazol-2-ylamine]",0.002
15,"NC1=N[C@@H](c2cc(F)cc(Cl)c2)CO1 [Example 178, (S)-4-(3-Chloro-5-fluoro-phenyl)-4,5-dihydro-oxazol-2-ylamine]",0.0004
16,"C[C@]1(c2ccccc2Cl)COC(N)=N1 [Example 180, (S)-4-(2-Chloro-phenyl)-4-methyl-4,5-dihydro-oxazol-2-ylamine]",0.0088
17,"CCC(C[C@H]1COC(N)=N1)c1ccc(C(F)(F)F)cc1 (stereo partly drawn) [Example 184, (S)-4-[2-(4-Trifluoromethyl-phenyl)-butyl]-4,5-dihydro-oxazol-2-ylamine]",0.0063
18,"C[C@]1(c2cc(F)ccc2F)COC(N)=N1 [Example 187, (S)-4-(2,5-Difluoro-phenyl)-4-methyl-4,5-dihydro-oxazol-2-ylamine]",0.0021
19,"NC1=N[C@@H](c2cc(Cl)ccc2F)CO1 [Example 190, (+)-(S)-4-(5-Chloro-2-fluoro-phenyl)-4,5-dihydro-oxazol-2-ylamine]",0.0008
20,"NC1=N[C@@H](c2cccc(Cl)c2)CO1 [Example 192, (+)-(S)-4-(3-Chloro-phenyl)-4,5-dihydro-oxazol-2-ylamine]",0.0019
